Reference: patent publication US20250049035A1, “MICROBIOCIDAL BICYCLE HETEROCYCLIC DERIVATIVES” (SYNGENTA CROP PROTECTION AG, priority 2021, published 2025)

How the values were obtained:
[1] = tested on: Botryotinia fuckeliana (Botrytis cinerea); experiment: Botryotinia fuckeliana (Botrytis cinerea) / liquid culture (gray mould); format: cell-based; settings: liquid culture (Vogels broth), growth inhibition photometrically 3-4 days after application, compared to untreated control
Method: Example B2: Botryotinia fuckeliana (Botrytis cinerea)/Liquid Culture (Gray Mould) Conidia of the fungus from cryogenic storage are directly mixed into a nutrient broth (Vogels broth). After placing a DMSO solution of test compound into a microtiter plate (96-well format), the nutrient broth containing the fungal spores is added. The test plates are incubated at 24° C. and the inhibition of growth is determined photometrically 3-4 days after application.

[2] = tested on: Monographella nivalis (Microdochium nivale); experiment: Monographella nivalis (Microdochium nivale) / liquid culture (foot rot cereals); format: cell-based; settings: liquid culture (potato dextrose broth), growth inhibition photometrically 4-5 days after application, compared to untreated control
Method: Example B9: Monographella nivalis (Microdochium nivale)/Liquid Culture (Foot Rot Cereals) Conidia of the fungus from cryogenic storage are directly mixed into a nutrient broth (potato dextrose broth). After placing a DMSO solution of test compound into a microtiter plate (96-well format), the nutrient broth containing the fungal spores is added. The test plates are incubated at 24° C. and the inhibition of growth is determined photometrically 4-5 days after application.

[3] = tested on: Mycosphaerella graminicola (Septoria tritici); experiment: Mycosphaerella graminicola (Septoria tritici) / liquid culture (Septoria blotch); format: cell-based; settings: Zymoseptoria tritici, liquid culture (potato dextrose broth), growth inhibition photometrically 4-5 days after application, compared to untreated control
Method: Example B15: Mycosphaerella graminicola (Septoria tritici/Liquid Culture (Septoria Blotch) Conidia of the fungus from cryogenic storage are directly mixed into a nutrient broth (potato dextrose broth). After placing a DMSO solution of test compound into a microtiter plate (96-well format), the nutrient broth containing the fungal spores is added. The test plates are incubated at 24° C. and the inhibition of growth is determined photometrically 4-5 days after application.

[4] = tested on: Glomerella lagenarium (Colletotrichum lagenarium); experiment: Glomerella lagenarium (Colletotrichum lagenarium) / liquid culture (anthracnose); format: cell-based; settings: Colletotrichum orbiculare, liquid culture (potato dextrose broth), growth inhibition photometrically 3-4 days after application, compared to untreated control
Method: Example B3: Glomerella lagenarium (Colletotrichum lagenarium)/Liquid Culture (Anthracnose) Conidia of the fungus from cryogenic storage are directly mixed into a nutrient broth (potato dextrose broth). After placing a DMSO solution of test compound into a microtiter plate (96-well format), the nutrient broth containing the fungal spores is added. The test plates are incubated at 24° C. and the inhibition of growth is measured photometrically 3-4 days after application.

[5] = tested on: Mycosphaerella arachidis (Cercospora arachidicola); experiment: Mycosphaerella arachidis (Cercospora arachidicola) / liquid culture (early leaf spot); format: cell-based; settings: liquid culture (potato dextrose broth), growth inhibition photometrically 4-5 days after application, compared to untreated control
Method: Example B10: Mycosphaerella arachidis (Cercospora arachidicola)/Liquid Culture (Early Leaf Spot) Conidia of the fungus from cryogenic storage are directly mixed into a nutrient broth (potato dextrose broth) After placing a DMSO solution of test compound into a microtiter plate (96-well format), the nutrient broth containing the fungal spores is added. The test plates are incubated at 24° C. and the inhibition of growth is determined photometrically 4-5 days after application.

Alternaria solani = Alternaria solani / tomato / leaf disc (early blight); format: in vivo; settings: foliar, tomato leaf disks cv. Baby, inoculated 2 days after application, assessed 5-7 days after application, compared to untreated control
Method: Example B1: Alternaria solani/Tomato/Leaf Disc (Early Blight) Tomato leaf disks cv. Baby are placed on agar in multiwell plates (24-well format) and sprayed with the formulated test compound diluted in water. The leaf disks are inoculated with a spore suspension of the fungus 2 days after application. The inoculated leaf disks are incubated at 23° C./21° C.

Pyrenophora teres = Pyrenophora teres / barley / leaf disc preventative (net blotch); format: in vivo; settings: foliar, barley leaf segments cv. Hasso, inoculated 2 days after application, assessed 5-7 days after application, compared to untreated control
Method: Example B12: Pyrenophora teres/Barley/Leaf Disc Preventative (Net Blotch) Barley leaf segments cv. Hasso are placed on agar in a multiwell plate (24-well format) and sprayed with the formulated test compound diluted in water. The leaf segments are inoculated with a spore suspension of the fungus 2 days after application. The inoculated leaf segments are incubated at 20° C. and 65% relative humidity under a light regime of 12 h light/12 h darkness in a climate cabinet and the activity of a compound is assessed as disease control compared to untreated when an appropriate level of disease damage appears in untreated check leaf segments (5-7 days after application).

[6] = tested on: Phaeosphaeria nodorum (Septoria nodorum); experiment: Phaeosphaeria nodorum (Septoria nodorum) / wheat / leaf disc preventative (glume blotch); format: in vivo; settings: Parastagonospora nodorum, foliar, wheat leaf segments cv. Kanzler, inoculated 2 days after application, assessed 5-7 days after application, compared to untreated control
Method: Example B8: Phaeosphaeria Nodorum (Septoria nodorum)/Wheat/Leaf Disc Preventative (Glume Blotch) Wheat leaf segments cv. Kanzler are placed on agar in a multiwell plate (24-well format) and sprayed with the formulated test compound diluted in water. The leaf disks are inoculated with a spore suspension of the fungus 2 days after application. The inoculated test leaf disks are incubated at 20° C. and 75% relative humidity under a light regime of 12 h light/12 h darkness in a climate cabinet and the activity of a compound is assessed as percent disease control compared to untreated when an appropriate level of disease damage appears in untreated check leaf disks (5-7 days after application).

C[C@H]1c2ccsc2[C@@](C)(c2cnn(C)c2)CN1C(=O)c1nnc(-c2ccc(F)cc2F)s1 (racemic) [Compound P-8, [5-(2,4-difluorophenyl)-1,3,4-thiadiazol-2-yl]-[rac-(4R,7R)-4,7-dimethyl-7-(1-methylpyrazol-4-yl)-4,6-dihydrothieno[3,2-c]pyridin-5-yl]methanone]
≥ 80%: inhibition of growth at 20 ppm [1] | inhibition of growth at 20 ppm [2] | inhibition of growth at 20 ppm [3] | inhibition of growth at 20 ppm [4] | inhibition of growth at 20 ppm [5] | pest or weed control at 200 ppm (Alternaria solani) | pest or weed control at 200 ppm (Pyrenophora teres)

C[C@@H]1c2sccc2[C@@H](c2cnn(C)c2)CN1C(=O)c1nnc(-c2ccc(F)cc2F)s1 (racemic) [Compound P-16, [5-(2,4-difluorophenyl)-1,3,4-thiadiazol-2-yl]-[rac-(4R,7R)-7-methyl-4-(1-methylpyrazol-4-yl)-5,7-dihydro-4H-thieno[2,3-c]pyridin-6-yl]methanone]
≥ 80%: inhibition of growth at 20 ppm [3]

C[C@@H]1c2sccc2[C@H](c2cnn(C)c2)CN1C(=O)c1nnc(-c2ccc(F)cc2F)s1 [Compound P-1, [5-(2,4-difluorophenyl)-1,3,4-thiadiazol-2-yl]-[(4S,7R)-7-methyl-4-(1-methylpyrazol-4-yl)-5,7-dihydro-4H-thieno[2,3-c]pyridin-6-yl]methanone]
≥ 80%: inhibition of growth at 20 ppm [2] | inhibition of growth at 20 ppm [3]

Cc1c([C@@H]2CN(C(=O)c3cc(-c4ccc(F)cc4F)on3)Cc3ccsc32)cnn1C [Compound P-4, [5-(2,4-difluorophenyl)isoxazol-3-yl]-[(7R)-7-(1,5-dimethylpyrazol-4-yl)-6,7-dihydro-4H-thieno[3,2-c]pyridin-5-yl]methanone]
≥ 80%: inhibition of growth at 20 ppm [2] | inhibition of growth at 20 ppm [3] | inhibition of growth at 20 ppm [4] | pest or weed control at 200 ppm (Alternaria solani) | pest or weed control at 200 ppm (Pyrenophora teres) | pest or weed control at 200 ppm [6]

C[C@@H]1c2sccc2[C@](C)(c2cnn(C)c2)CN1C(=O)c1nnc(-c2ccc(F)cc2F)s1 [Compound P-5, [5-(2,4-difluorophenyl)-1,3,4-thiadiazol-2-yl]-[(4S,7R)-4,7-dimethyl-4-(1-methylpyrazol-4-yl)-5,7-dihydrothieno[2,3-c]pyridin-6-yl]methanone]
≥ 80%: inhibition of growth at 20 ppm [4] | inhibition of growth at 20 ppm [5]

CC1c2ccsc2C(C)(c2cnn(C)c2)CN1C(=O)c1cc(-c2ccc(F)cc2F)on1 (centres unmarked) [Compound P-20, [5-(2,4-difluorophenyl)isoxazol-3-yl]-[4,7-dimethyl-7-(1-methylpyrazol-4-yl)-4,6-dihydrothieno[3,2-c]pyridin-5-yl]methanone]
≥ 80%: inhibition of growth at 20 ppm [1] | inhibition of growth at 20 ppm [3] | inhibition of growth at 20 ppm [4] | inhibition of growth at 20 ppm [5] | pest or weed control at 200 ppm (Alternaria solani) | pest or weed control at 200 ppm [6]

Cn1cc(C2CN(C(=O)c3cc(-c4ccc(F)cc4F)on3)Cc3cnsc32)cn1 (centres unmarked) [Compound P-23, [5-(2,4-difluorophenyl)isoxazol-3-yl]-[7-(1-methylpyrazol-4-yl)-6,7-dihydro-4H-isothiazolo[4,5-c]pyridin-5-yl]methanone]
≥ 80%: inhibition of growth at 20 ppm [2] | inhibition of growth at 20 ppm [3] | inhibition of growth at 20 ppm [4] | pest or weed control at 200 ppm (Alternaria solani)

Cn1cc(C2CN(C(=O)c3cc(-c4ccc(F)cc4F)on3)Cc3sncc32)cn1 (centres unmarked) [Compound P-26, [5-(2,4-difluorophenyl)isoxazol-3-yl]-[4-(1-methylpyrazol-4-yl)-5,7-dihydro-4H-isothiazolo[5,4-c]pyridin-6-yl]methanone]
≥ 80%: inhibition of growth at 20 ppm [1] | inhibition of growth at 20 ppm [2] | inhibition of growth at 20 ppm [3] | inhibition of growth at 20 ppm [4] | pest or weed control at 200 ppm (Alternaria solani) | pest or weed control at 200 ppm [6]

Cc1c(C2CN(C(=O)c3cc(-c4ccc(F)cc4F)on3)Cc3ncsc32)cnn1C (centres unmarked) [Compound P-28, [5-(2,4-difluorophenyl)isoxazol-3-yl]-[7-(1,5-dimethylpyrazol-4-yl)-6,7-dihydro-4H-thiazolo[4,5-c]pyridin-5-yl]methanone]
≥ 80%: inhibition of growth at 20 ppm [2] | inhibition of growth at 20 ppm [3] | inhibition of growth at 20 ppm [4] | inhibition of growth at 20 ppm [5] | pest or weed control at 200 ppm (Alternaria solani) | pest or weed control at 200 ppm (Pyrenophora teres) | pest or weed control at 200 ppm [6]

Cn1cc(C2CN(C(=O)c3cc(-c4ccc(F)cc4F)on3)Cc3cscc32)cn1 (centres unmarked) [Compound P-29]
≥ 80%: inhibition of growth at 20 ppm [1] | inhibition of growth at 20 ppm [2] | inhibition of growth at 20 ppm [3] | inhibition of growth at 20 ppm [4] | inhibition of growth at 20 ppm [5] | pest or weed control at 200 ppm (Alternaria solani) | pest or weed control at 200 ppm [6]

Cc1nn(C)c(C)c1C1CN(C(=O)c2cc(-c3ccc(F)cc3F)on2)Cc2sccc21 (centres unmarked) [Compound P-36, [5-(2,4-difluorophenyl)isoxazol-3-yl]-[4-(1,3,5-trimethylpyrazol-4-yl)-5,7-dihydro-4H-thieno[2,3-c]pyridin-6-yl]methanone]
≥ 80%: inhibition of growth at 20 ppm [1] | inhibition of growth at 20 ppm [2] | inhibition of growth at 20 ppm [3] | inhibition of growth at 20 ppm [4] | inhibition of growth at 20 ppm [5] | pest or weed control at 200 ppm (Alternaria solani) | pest or weed control at 200 ppm (Pyrenophora teres)

Cc1nn(C)c(C)c1C1CN(C(=O)c2cc(-c3ccc(F)cc3F)on2)Cc2ccsc21 (centres unmarked) [Compound P-37, [5-(2,4-difluorophenyl)isoxazol-3-yl]-[7-(1,3,5-trimethylpyrazol-4-yl)-6,7-dihydro-4H-thieno[3,2-c]pyridin-5-yl]methanone]
≥ 80%: inhibition of growth at 20 ppm [2] | inhibition of growth at 20 ppm [3] | inhibition of growth at 20 ppm [5] | pest or weed control at 200 ppm (Alternaria solani)
